Measurements published in US10844044B2 (Vanderbilt University, priority 2018, dated 2020).
Like-named read-outs stand apart in the source and are kept apart here.

Columns and labels:
[1] = tested on: MV4:11 human cancer cell lines; experiment: Anti-proliferative activity, CellTiter-Glo viability assay, 7 day protocol; assay type: cell-based; conditions: Homo sapiens, MV4-11, 168 h, MV4:11 cells, 7 day incubation, read-out: GI50 on cellular proliferation of MV4:11 human cancer cell lines
How it was run: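 MV4:11 cells seeded at 3600 cells/ml and exposed to compounds for 7 days, 0.1% DMSO final. Viability measured by CellTiter-Glo luminescence. GI50 from three biological replicates, each in technical triplicate, given as mean ± S.E.M.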

[2] = biological target: WDR5 (Homo sapiens (Human), UniProt P61964); experiment: TR-FRET binding assay (displacement of 10mer-Thr-FAM probe from WDR5)
[3] = read-out: Ki for Inhibition of WDR5 by TR-FRET assay, TR-FRET, 10mer-Thr-FAM probe, WDR5-His tag 2 nM, pH 7.0

Ki [2] [nM]	Compound	GI50 [1] [nM]	Ki ([2]; read-out: Ki for Inhibition of WDR5 by TR-FRET assay) [nM]	Ki [2, 3] [nM]
–	CCn1cc(-c2cc(Cn3ccn(C)c3=N)cc(C(=O)N[C@H](c3ccc(Cl)c(Cl)c3)C3CC3)c2)c(C(F)(F)F)n1 [Example 161, (S)—N-(Cyclopropyl(3,4-dichlorophenyl)methyl)-3-(1-ethyl-3-(trifluoromethyl)-1H-pyrazol-4-yl)-5-((2-imino-3-methyl-2,3-dihydro-1H-imidazol-1-yl)methyl)benzamide]	< 100	< 0.1	–
–	CCn1cc(-c2cc(Cn3ccn(C4CC4)c3=N)cc(C(=O)N[C@H](c3ccc(Cl)c(Cl)c3)C3CC3)c2)c(C(F)(F)F)n1 [Example 162, (S)—N-(Cyclopropyl(3,4-dichlorophenyl)methyl)-3-((3-cyclopropyl-2-imino-2,3-dihydro-1H-imidazol-1-yl)methyl)-5-(1-ethyl-3-(trifluoromethyl)-1H-pyrazol-4-yl)benzamide]	130	–	< 0.1
–	Cc1cc([C@@H](NC(=O)c2cc(Cn3ccn(C)c3=N)cc(C3CCC3)c2)C2CC2)ccc1F [Example 166, (S)-3-Cyclobutyl-N-(cyclopropyl(4-fluoro-3-methylphenyl)methyl)-5-((2-imino-3-methyl-2,3-dihydro-1H-imidazol-1-yl)methyl)benzamide]	360	–	< 0.1
< 0.1	Cc1cc([C@H](C)NC(=O)c2cc(Cn3ccn(C)c3=N)cc(-c3ccc(F)cc3C(F)(F)F)c2F)ccc1F [Example 172, (S)-2,4′-Difluoro-N-(1-(4-fluoro-3-methylphenyl)ethyl)-5-((2-imino-3-methyl-2,3-dihydro-1H-imidazol-1-yl)methyl)-2′-(trifluoromethyl)-[1,1′-biphenyl]-3-carboxamide]	160	–	–
–	Cc1cc([C@@H](NC(=O)c2cc(Cn3ccn(C)c3=N)cc(-c3ccc(F)cc3Cl)c2)C2CC2)ncc1F [Example 174, (S)-2′-Chloro-N-(cyclopropyl(5-fluoro-4-methylpyridin-2-yl)methyl)-4′-fluoro-5-((2-imino-3-methyl-2,3-dihydro-1H-imidazol-1-yl)methyl)-[1,1′-biphenyl]-3-carboxamide]	< 100	–	< 0.1
–	Cc1cc([C@@H](NC(=O)c2cc(Cn3ccn(C)c3=N)cc(OC(F)(F)F)c2)C2CC2)ccc1F [Example 179, (S)—N-(Cyclopropyl(4=fluoro-3-methylphenyl)methyl)-3-((2-imino-3-methyl-2,3-dihydro-1H-imidazol-1-yl)methyl)-5-(trifluoromethoxy)benzamide]	230	–	< 0.1
–	Cc1cc([C@@H](NC(=O)c2cc(Cn3ccn(C)c3=N)cc(-c3ccc(F)cc3C#N)c2)C2CC2)ccc1F [Example 185, (S)-2′-Cyano-N-(cyclopropyl(4-fluoro-3-methylphenyl)methyl)-4′-fluoro-5-((2-imino-3-methyl-2,3-dihydro-1H-imidazol-1-yl)methyl)-[1,1′-biphenyl]-3-carboxamide]	610	–	< 0.1
–	Cn1ccn(Cc2cc(C(=O)NC3(c4cccc(Br)c4)CCC3)c(F)c(-c3ccc(F)cc3C(F)(F)F)c2)c1=N [Example 186, N-(1-(3-Bromophenyl)cyclobutyl)-2,4′-difluoro-5-((2-imino-3-methyl-2,3-dihydro-1H-imidazol-1-yl)methyl)-2′-(trifluoromethyl)-[1,1′-biphenyl]-3-carboxamide]	580	–	< 0.1
–	Cn1ccn(Cc2cc(C(=O)N[C@H](c3ccc(Cl)c(Cl)c3)C3CC3)cc(-c3ncc(F)cc3C(F)(F)F)c2)c1=N [Example 187]	440	–	< 0.1
< 0.1	Cc1cc([C@@H](NC(=O)c2cc(Cn3ccn(C)c3=N)cc(-c3ccc(F)cc3C(F)(F)F)c2)C2CC2)ccc1F [Example 188, (S)—N-(Cyclopropyl(4-fluoro-3-methylphenyl)methyl)-4′-fluoro-5-((2-imino-3-methyl-2,3-dihydro-1H-imidazol-1-yl)methyl)-2′-(trifluoromethyl)-[1,1′-biphenyl]3-carboxamide]	< 100	–	–
–	Cn1ccn(Cc2cc(C(=O)N[C@H](c3ccc(F)c(F)c3)C3CC3)cc(-c3cccnc3C(F)(F)F)c2)c1=N [Example 189, (S)—N-(Cyclopropyl(3,4-difluorophenyl)methyl)-3-((2-imino-3-methyl-2,3-dihydro-1H-imidazol-1-yl)methyl)-5-(2-(trifluoromethyl)pyridin-3-yl)benzamide]	120	–	< 0.1
–	CCn1cc(-c2cc(Cn3ccn(C4CC4)c3=N)cc(C(=O)N[C@H](c3ccc(F)c(F)c3)C3CC3)c2)c(C(F)(F)F)n1 [Example 190, (S)—N-(Cyclopropyl(3,4-difluorophenyl)methyl)-3-((3-cyclopropyl-2-imino-2,3-dihydro-1H-imidazol-1-yl)methyl)-5-(1-ethyl-3-(trifluoromethyl)-1H-pyrazol-4-yl)benzamide]	190	–	0.11
–	CCn1cc(-c2cc(Cn3ccn(C)c3=N)cc(C(=O)N[C@H](c3ccc(F)c(F)c3)C3CC3)c2)c(C(F)(F)F)n1 [Example 191]	80	–	< 0.1
–	C=C(c1cc(Cn2ccn(C)c2=N)cc(C(=O)N[C@H](c2ccc(F)c(C)c2)C2CC2)c1)C(F)(F)F [Example 192, (S)—N-(cyclopropyl(4-fluoro-3-methylphenyl)methyl)-3-((2-imino-3-methyl-2,3-dihydro-1H-imidazol-1-yl)methyl)-5-(3,3,3-trifluoroprop-1-en-2-yl)benzamide]	500	–	< 0.1
–	Cc1cc([C@@H](NC(=O)c2cc(Cn3ccn(C)c3=N)cc(-c3cn(C(C)C)nc3C(F)(F)F)c2)C2CC2)ccc1F [Example 193, (S)—N-(Cyclopropyl(4-fluoro-3-methylphenyl)methyl)-3-((2-imino-3-methyl-2,3-dihydro-1H-imidazol-1-yl)methyl)-5-(1-isopropyl-3-(trifluoromethyl)-1H-pyrazol-4-yl)benzamide]	< 100	–	< 0.1
–	Cc1cc([C@@H](NC(=O)c2cc(Cn3ccn(C4CC4)c3=N)cc(-c3cn(C(C)C)nc3C(F)(F)F)c2)C2CC2)ccc1F [Example 194, (S)—N-(Cyclopropyl(4-fluoro-3-methylphenyl)methyl)-3-((3-cyclopropyl-2-imino-2,3-dihydro-1H-imidazol-1-yl)methyl)-5-(1-isopropyl-3-(trifluoromethyl)-1H-pyrazol-4-yl)benzamide]	< 100	–	< 0.1
–	Cc1cc([C@@H](NC(=O)c2cc(Cn3ccn(C)c3=N)cc(C(C)C(F)(F)F)c2)C2CC2)ccc1F (stereo partly drawn) [Example 195, N—((S)-Cyclopropyl(4-fluoro-3-methylphenyl)methyl)-3-((2-imino-3-methyl-2,3-dihydro-1H-imidazol-1-yl)methyl)-5-(1,1,1-trifluoropropan-2-yl)benzamide]	940	–	< 0.1
–	Cc1cc([C@@H](NC(=O)c2cc(Cn3ccn(C)c3=N)cc(-c3cc(C(F)(F)F)nn3C)c2)C2CC2)ccc1F [Example 196, (S)—N-(Cyclopropyl(4-fluoro-3-methylphenyl)methyl)-3-((2-imino-3-methyl-2,3-dihydro-1H-imidazol-1-yl)methyl)-5-(1-methyl-3-(trifluoromethyl)-1H-pyrazol-5-yl)benzamide]	< 100	–	< 0.1
